Assay results as given in the RepoRT retention time repository (doi:10.1016/j.foodchem.2021.129757).
Structures can show the parent of a compound that is named as a salt.

What was measured:
Settings in all cases: stereoisomer not certain
[1] = RP, Agilent ZORBAX RRHD Eclipse Plus C18, 50 × 2.1 mm, 1.8 µm, 30 °C, 0.4 mL/min, estimated dead time 0.28 min; A: water + 0.1% formic acid, pH 3; B: acetonitrile + 0.1% formic acid, pH 3; gradient (min/%B) 0/1 5/10 8/25 9.1/99 10/99 12/1
[2] = RP, Agilent ZORBAX RRHD Eclipse Plus C18, 50 × 2.1 mm, 1.8 µm, 30 °C, 0.4 mL/min, estimated dead time 0.28 min; A: water + 0.1% formic acid, pH 3; B: acetonitrile + 0.1% formic acid, pH 3; gradient (min/%B) 0/1 5/10 8/25 9.1/99 10/99 12/99
[3] = RP, Waters ACQUITY UPLC HSS T3, 100 × 2.1 mm, 50 °C; A: water + 0.1% formic acid, pH 3; B: 30% methanol + 70% acetonitrile + 0.1% formic acid, pH 3; gradient (min/%B) 0/5 1/8 2/15 3/40 4/70 4.5/100 5/100 6.4/100 6.6/5 6.8/5 7/5
[4] = RP, Agilent ZORBAX Eclipse XDB-C18, 100 × 2.1 mm, 1.8 µm, 50 °C, 0.4 mL/min, estimated dead time 0.55 min; A: water + 0.1% formic acid, pH 3; B: methanol + 0.1% formic acid, pH 3; gradient (min/%B) 0/2 10/100 14.5/100 14.51/2 16.5/2
[5] = RP, Waters ACQUITY UPLC BEH C18, 100 × 2.1 mm, 1.7 µm, 65 °C, 0.4 mL/min, estimated dead time 0.55 min; A: water + 0.1% formic acid, pH 3; B: 80% acetonitrile + 20% acetone + 0.1% formic acid, pH 3; gradient (min/%B) 0/0 5/100 5.5/0 6/0
[6] = RP, Waters ACQUITY UPLC BEH Shield RP18, 150 × 2.1 mm, 1.7 µm, 40 °C, 0.4 mL/min, estimated dead time 0.83 min; A: water + 0.1% formic acid, pH 3; B: acetonitrile + 0.1% formic acid, pH 3; gradient (min/%B) 0/0 30/50 31/100 37/100 37.1/0
[7] = RP, Agilent InfinityLab Poroshell 120 EC-C18, 100 × 3 mm, 2.7 µm, 25 °C, 0.4 mL/min, estimated dead time 1.1 min; A: water + 0.1% formic acid, pH 3; B: acetonitrile + 0.1% formic acid, pH 3; gradient (min/%B) 0/5 10/25 20/40 24/90 25/90 26/5 30/5

| SMILES | LC retention time [1] [min] | LC retention time [2] [min] | further results |
| --- | --- | --- | --- |
| O=C1CCC(Cc2ccc(OS(=O)(=O)O)c(O)c2)O1 (centres undefined) | 6.09 | 5.42 |  |
| CC(Oc1ccc(O)cc1)C(=O)O (single isomer, unassigned; (+)) [(+)-2-(4-Hydroxyphenoxy)propionic acid] | 6.31 | 3.73 |  |
| Oc1cc(O)c2c(c1)OC(c1ccc(O)c(O)c1)C(O)C2 (single isomer, unassigned; (+)) [(+)-Catechin] |  | 4.65 |  |
| O=C(O)C1CCCCN1 (single isomer, unassigned; (+)) [(+)-Pipecolinic acid] |  |  | LC retention time [3]: 0.617 min |
| COc1cccc(OS(=O)(=O)O)c1O [1-Methyl-pyrogallol-O-sulfate] | 4 | 1.96 |  |
| O=Cc1ccccc1O [2-Hydroxybenzaldehyde] |  |  | LC retention time [3]: 3.72 min |
| COc1c(O)cccc1OS(=O)(=O)O [2-Methyl-pyrogallol-O-sulfate] | 2.89 | 1.12 |  |
| COc1ccc(C(=O)O)c(O)c1 [2-hydroxy-4-methoxybenzoic acid] | 8.98 |  |  |
| Cn1c(=O)[nH]c(=O)c2c1[nH]c(=O)n2C [3,7-Dimethyluric acid] |  |  | LC retention time [3]: 1.54 min |
| O=C(O)CCc1ccc(O)cc1O [3-(2,4-dihydroxyphenyl)propionic acid] |  |  | LC retention time [3]: 3.02 min |
| O=C(O)CCc1cc(O)cc(O)c1 [3-(3,5-Dihydroxyphenyl)propanoic acid] |  |  | LC retention time [3]: 2.66 min |
| O=Cc1cccc(O)c1 [3-Hydroxybenzaldehyde] | 5.91 |  | LC retention time [4]: 3.72 min |
| O=C(O)CNC(=O)c1cccc(O)c1 [3-Hydroxyhippuric acid] | 3.58 | 1.88 | LC retention time [5]: 1.58 min |
| O=C(O)Cc1cccc(O)c1 [3-hydroxyphenylacetic acid] | 5.69 | 4.67 | LC retention time [4]: 3.55 min |
| COc1ccc(C2Oc3cc(O)cc(O)c3CC2O)cc1O (centres undefined) [4'-O-methylepicatechin] | 7.85 |  |  |
| Cc1ccc(OS(=O)(=O)O)c(O)c1 [4-Methylcatechol-1-O-sulfate] | 5.96 | 3.83 |  |
| Cc1ccc(O)c(OS(=O)(=O)O)c1 [4-Methylcatechol-2-O-sulfate] | 5.96 | 3.83 |  |
| Cn1cnc2[nH]c(=O)[nH]c(=O)c21 [7-Methylxanthine] |  |  | LC retention time [3]: 1.25 min |
| C=C1C(=O)OC2C1CCC(C)=C1C(=O)C=C(COC(=O)C(=O)O)C12 (centres undefined) [8-deoxylactucin-15-oxalate] |  |  | LC retention time [6]: 14.5 min |
| C=C1C(=O)OC2C1CCC(C)=C1C(=O)C=C(CO)C12 (centres undefined) [8-deoxylactucin] |  |  | LC retention time [6]: 15.5 min |
| CC(=O)Nc1c(N)[nH]c(=O)n(C)c1=O [AAMU] |  |  | LC retention time [3]: 0.681 min |

| SMILES | LC retention time [1] [min] | LC retention time [2] [min] | further results |
| --- | --- | --- | --- |
| C=CCS(=O)CC(N)C(=O)O (centres undefined) [Alliin] |  |  | LC retention time [3]: 0.638 min |
| O=C1OC(C(O)CO)C(O)=C1O (centres undefined) [Ascorbic acid] |  |  | LC retention time [3]: 0.601 min |
| O=C(O)C=Cc1ccc(O)c(OS(=O)(=O)O)c1 [Caffeic acid-3-O-sulfate] | 4.86 | 3.99 |  |
| O=C(O)C=Cc1ccc(O)c(OC2OC(C(=O)O)C(O)C(O)C2O)c1 (centres undefined) [Caffeic acid-3-glucuronide] | 5.23 | 4.14 |  |
| Oc1ccccc1O [Catechol] | 3.15 | 3.97 | LC retention time [5]: 1.75 min; LC retention time [6]: 4.35 min |
| COc1ccc(CCC(=O)O)cc1OS(=O)(=O)O [Dihydro isoferulic acid-3-O-sulfate] | 6.39 | 5.06 |  |
| CC1=C2C(=O)C=C(COC(=O)C(=O)O)C2C2OC(=O)C(C)C2CC1 (centres undefined) [Dihydro-8-deoxylactucin-15-oxalate] |  |  | LC retention time [6]: 14.9 min |
| CC1=C2C(=O)C=C(CO)C2C2OC(=O)C(C)C2CC1 (centres undefined) [Dihydro-8-deoxylactucin] |  |  | LC retention time [6]: 14.5 min |
| COc1cc(CCC(=O)O)ccc1OC1OC(C(=O)O)C(O)C(O)C1O (centres undefined) [Dihydroferulic acid-4-O-glucuronide] | 5.64 | 5.15 |  |
| COc1cc(CCC(=O)O)ccc1O [Dihydroferulic acid] | 7.16 | 4.07 | LC retention time [6]: 8.81 min |
| COc1ccc(CCC(=O)O)cc1O [Dihydroisoferulic acid] | 7.68 | 5.06 |  |
| O=C1c2c(O)cc(O)cc2OC(c2ccc(O)cc2)C1O (centres undefined) [Dihydrokaempferol] |  |  | LC retention time [6]: 15.3 min |
| CC1=C2C(=O)C=C(COC(=O)C(=O)O)C2C2OC(=O)C(C)C2C(O)C1 (centres undefined) [Dihydrolactucin-15-oxalate] |  |  | LC retention time [6]: 9.7 min |
| CC1=C2C(=O)C=C(CO)C2C2OC(=O)C(C)C2C(O)C1 (centres undefined) [Dihydrolactucin] |  |  | LC retention time [6]: 10.5 min |
| CC1=C2C(=O)C=C(COC(=O)C(=O)O)C2C2OC(=O)C(C)C2C(OC(=O)Cc2ccc(O)cc2)C1 (centres undefined) [Dihydrolactucopicrin-15-oxalate] |  |  | LC retention time [6]: 17.3 min |
| COc1ccc(-c2cc(=O)c3c(O)cc(OC4OC(C(=O)O)C(O)C(O)C4O)cc3o2)cc1O (centres undefined) [Diosmetin 7-glucuronide] |  |  | LC retention time [3]: 3.6 min |
| O=C1OCC(Cc2cccc(O)c2)C1Cc1cccc(O)c1 (centres undefined) [Enterolactone] |  |  | LC retention time [5]: 2.88 min; LC retention time [7]: 17.4 min |
| O=C(O)C1OC(Oc2cc(O)c3c(=O)c(-c4ccc(O)cc4)coc3c2)C(O)C(O)C1O (centres undefined) [Genistein 7-O-glucuronide] |  |  | LC retention time [5]: 2.1 min; LC retention time [7]: 9.6 min |
| COc1cc(CC(=O)O)ccc1OS(=O)(=O)O [Homovanillic acid sulfate] | 4.48 | 2.12 | LC retention time [5]: 1.45 min |
| O=C(O)C1OC(Oc2ccc(O)cc2)C(O)C(O)C1O (centres undefined) [Hydroquinone glucuronide] |  |  | LC retention time [3]: 0.909 min |
| O=C(O)C1CC(O)CN1 (centres undefined) [Hydroxyproline] |  |  | LC retention time [3]: 0.466 min |

| SMILES | LC retention time [1] [min] | LC retention time [2] [min] | further results |
| --- | --- | --- | --- |
| CS(=O)CCCN=C=S (centres undefined) [Iberin] |  |  | LC retention time [3]: 3.25 min |
| O=C(Cc1c[nH]c2ccccc12)OC1OC(C(=O)O)C(O)C(O)C1O (centres undefined) [Indole-3-acetic acid glucuronide] |  |  | LC retention time [3]: 3.46 min |
| OCC1OC(Oc2c[nH]c3ccccc23)C(O)C(O)C1O (stereo not drawn) [Indoxyl beta-d-glucoside] |  |  | LC retention time [3]: 2.92 min |
| COc1ccc(C(=O)O)cc1O [Isovanillic acid] | 5.2 | 1.99 |  |
| NC(=O)NCCC[C@H](N)C(=O)O [L-Citrulline] |  |  | LC retention time [3]: 0.483 min |
| C=C1C(=O)OC2C3C(CO)=CC(=O)C3=C(C)CC(O)C12 (centres undefined) [Lactucin] |  |  | LC retention time [6]: 11.2 min |
| C=C1C(=O)OC2C3C(CO)=CC(=O)C3=C(C)CC(OC(=O)Cc3ccc(O)cc3)C12 (centres undefined) [Lactucopicrin] |  |  | LC retention time [6]: 18.4 min |
| CN(C)CC(=O)O [N,N-Dimethylglycine] |  |  | LC retention time [3]: 0.49 min |
| O=C(O)Cc1ccccc1 [Phenylacetic acid] | 7.64 | 4.65 |  |
| O=S(=O)(O)Oc1cccc(O)c1O [Pyrogallol-1-O-sulfate] | 1.56 | 0.774 |  |
| O=C(O)C1OC(Oc2cc(O)c3c(=O)c(O)c(-c4ccc(O)c(O)c4)oc3c2)C(O)C(O)C1O (centres undefined) [Quercetin-7-O-glucuronide] | 7.84 | 8.38 |  |
| Oc1cccc(O)c1 [Resorcinol] | 2.66 | 1.44 |  |
| O=C(O)C=Cc1ccc(OS(=O)(=O)O)c(O)c1 [caffeic acid-4-O-sulfate] | 5.28 | 5.5 |  |
| O=c1c(O)c(-c2ccccc2)oc2cc(O)cc(O)c12 [galangin] |  |  | LC retention time [6]: 29.4 min |
| C=C1C(=O)OC2C3C(COC(=O)C(=O)O)=CC(=O)C3=C(C)CC(O)C12 (centres undefined) [lactucin-15-oxalate] |  |  | LC retention time [6]: 10.4 min |
| C=C1C(=O)OC2C3C(COC(=O)C(=O)O)=CC(=O)C3=C(C)CC(OC(=O)Cc3ccc(O)cc3)C12 (centres undefined) [lactucopicrin-15-oxalate] |  |  | LC retention time [6]: 17.2 min |
| O=C(O)C=Cc1ccc(OS(=O)(=O)O)cc1 [p-Coumaric acid 4-O-sulfate] | 5.25 | 3.78 |  |
| O=C(O)C=Cc1ccc(OC2OC(C(=O)O)C(O)C(O)C2O)cc1 (centres undefined) [p-Coumaric acid-4-O-glucuronide] | 3.8 | 1.85 |  |
| CCCOC(=O)c1cc(O)c(O)c(O)c1 [propyl gallate] |  |  | LC retention time [6]: 12.8 min |
